The text below walks through data of ChEMBL document CHEMBL2074157, “The modified dipeptide, enalapril, an angiotensin-converting enzyme inhibitor, is transported by the rat liver organic anion transport protein” (Hepatology, 1998).

What all share (type): functional, cell-based
Data set [1] has as its target T1, Oatp1 (Solute carrier organic anion transporter family member 1A1) (Rattus norvegicus, UniProt P46720).
T1 sequence (P46720 whole entry): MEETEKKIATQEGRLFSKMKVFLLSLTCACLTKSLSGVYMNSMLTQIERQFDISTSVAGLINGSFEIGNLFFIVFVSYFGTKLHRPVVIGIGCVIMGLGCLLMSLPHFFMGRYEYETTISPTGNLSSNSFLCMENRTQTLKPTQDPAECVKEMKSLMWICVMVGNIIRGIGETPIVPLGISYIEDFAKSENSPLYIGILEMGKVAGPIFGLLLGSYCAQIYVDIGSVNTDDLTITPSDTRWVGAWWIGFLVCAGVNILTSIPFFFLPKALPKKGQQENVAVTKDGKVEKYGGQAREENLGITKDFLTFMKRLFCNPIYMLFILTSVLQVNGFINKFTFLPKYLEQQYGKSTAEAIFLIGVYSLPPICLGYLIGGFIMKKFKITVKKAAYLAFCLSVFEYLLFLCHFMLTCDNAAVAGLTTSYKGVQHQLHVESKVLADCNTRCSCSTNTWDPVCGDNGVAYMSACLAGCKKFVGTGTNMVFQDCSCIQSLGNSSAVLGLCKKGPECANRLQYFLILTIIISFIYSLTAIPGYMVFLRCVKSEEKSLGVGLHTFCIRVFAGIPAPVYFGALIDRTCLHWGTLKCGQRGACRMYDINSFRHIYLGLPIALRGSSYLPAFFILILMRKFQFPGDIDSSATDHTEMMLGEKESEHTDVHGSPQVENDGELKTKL
Briefly: TP_TRANSPORTER: inhibition of Enalapril uptake (Enalapril: ? uM, BSP-SG: 200 uM) in Oatp1-expressing HeLa cells. More on the design: scale not given: the % may be the effect or the level left. The conditions noted are these: human, probe Enalapril, read-out: Activity.

Data set [2] deals with T2, Solute carrier organic anion transporter family member 1A1 (Rattus norvegicus, UniProt P46720).
T2 sequence (P46720 whole entry): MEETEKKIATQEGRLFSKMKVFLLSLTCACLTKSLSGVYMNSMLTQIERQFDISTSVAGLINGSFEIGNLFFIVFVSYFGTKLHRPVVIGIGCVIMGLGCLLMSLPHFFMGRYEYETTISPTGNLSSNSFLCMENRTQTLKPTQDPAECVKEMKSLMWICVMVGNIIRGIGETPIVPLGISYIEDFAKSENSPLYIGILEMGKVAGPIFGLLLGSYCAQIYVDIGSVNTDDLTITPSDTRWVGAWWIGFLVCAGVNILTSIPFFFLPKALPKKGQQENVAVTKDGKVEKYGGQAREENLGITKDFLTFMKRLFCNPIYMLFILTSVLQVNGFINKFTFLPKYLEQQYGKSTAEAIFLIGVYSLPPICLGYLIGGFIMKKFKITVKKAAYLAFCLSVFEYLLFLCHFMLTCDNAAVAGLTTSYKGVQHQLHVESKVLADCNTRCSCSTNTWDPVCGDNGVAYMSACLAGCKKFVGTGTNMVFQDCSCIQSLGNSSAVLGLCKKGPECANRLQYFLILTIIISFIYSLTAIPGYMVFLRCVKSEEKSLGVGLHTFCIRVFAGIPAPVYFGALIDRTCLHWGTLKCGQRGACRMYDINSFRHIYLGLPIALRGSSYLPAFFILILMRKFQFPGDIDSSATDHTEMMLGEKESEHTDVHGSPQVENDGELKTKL
In words: (§1) TP_TRANSPORTER: uptake in Oatp1-expressing HeLa cells. The following applies: human.

Data set [3] addresses T1, Oatp1 (Solute carrier organic anion transporter family member 1A1). Briefly: TP_TRANSPORTER: inhibition of Enalapril uptake (Enalapril: ? uM, E1S: 100 uM) in Oatp1-expressing HeLa cells. The following applies: human, probe Enalapril, read-out: Activity. More on the design: scale not given: the % may be the effect or the level left.
In data set [4] the target is T2, Solute carrier organic anion transporter family member 1A1. Briefly: TP_TRANSPORTER: inhibition of Enalapril uptake in Oatp1-expressing HeLa cells.
Substrate in data set [5]: CCOC(=O)[C@H](CCc1ccccc1)N[C@@H](C)C(=O)N1CCC[C@H]1C(=O)O
The description is as §1.

Regarding `N[C@@H](CCC(=O)N[C@@H](CSc1c(Br)c(Br)c2c(c1Br)C(=O)OC2(c1ccc(O)c(S(=O)(=O)O)c1)c1ccc(O)c(S(=O)(=O)O)c1)C(=O)NCC(=O)O)C(=O)O`, the activity at 200 µM in data set [1] was 78%. Further, the Activity entry in data set [2] was “substrate [+]”.
For the molecule `C[C@H](N[C@@H](CCc1ccccc1)C(=O)O)C(=O)N1CCC[C@H]1C(=O)O` [ENALAPRILAT ANHYDROUS], the Activity result in data set [2] is “is not a substrate [-]”.
Take `C[C@]12CC[C@@H]3c4ccc(OS(=O)(=O)O)cc4CC[C@H]3[C@@H]1CCC2=O` [ESTRONE SULFURIC ACID]: the activity at 100 µM in data set [3] stood at 20%. Also, in data set [2], the Activity result is “substrate [+]”.
For the molecule `Cc1nccc2c1[nH]c1cc(O)ccc12.O=S(=O)(O)O` [HARMOL SULFATE], the Activity entry in data set [2] was “is not a substrate [-]”.
By Ki is commonly meant a measure of affinity in units of concentration, obtained from inhibition or displacement. Molecule `O=C1OC(c2ccc(O)c(S(=O)(=O)O)c2)(c2ccc(O)c(S(=O)(=O)O)c2)c2c(Br)c(Br)c(Br)c(Br)c21` [SULFOBROMOPHTHALEIN SODIUM] displayed an inhibitory constant (Ki) in data set [4] of 1980 nM.

B1: Solute carrier organic anion transporter family member 1A1 (Rattus norvegicus) (protein)
chain: MEETEKKIATQEGRLFSKMKVFLLSLTCACLTKSLSGVYMNSMLTQIERQFDISTSVAGLINGSFEIGNLFFIVFVSYFGTKLHRPVVIGIGCVIMGLGCLLMSLPHFFMGRYEYETTISPTGNLSSNSFLCMENRTQTLKPTQDPAECVKEMKSLMWICVMVGNIIRGIGETPIVPLGISYIEDFAKSENSPLYIGILEMGKVAGPIFGLLLGSYCAQIYVDIGSVNTDDLTITPSDTRWVGAWWIGFLVCAGVNILTSIPFFFLPKALPKKGQQENVAVTKDGKVEKYGGQAREENLGITKDFLTFMKRLFCNPIYMLFILTSVLQVNGFINKFTFLPKYLEQQYGKSTAEAIFLIGVYSLPPICLGYLIGGFIMKKFKITVKKAAYLAFCLSVFEYLLFLCHFMLTCDNAAVAGLTTSYKGVQHQLHVESKVLADCNTRCSCSTNTWDPVCGDNGVAYMSACLAGCKKFVGTGTNMVFQDCSCIQSLGNSSAVLGLCKKGPECANRLQYFLILTIIISFIYSLTAIPGYMVFLRCVKSEEKSLGVGLHTFCIRVFAGIPAPVYFGALIDRTCLHWGTLKCGQRGACRMYDINSFRHIYLGLPIALRGSSYLPAFFILILMRKFQFPGDIDSSATDHTEMMLGEKESEHTDVHGSPQVENDGELKTKL
What is called Km is the concentration of substrate that gives half-maximal velocity. As for B1, in data set [5], the Km was 252 µM.
